Data taken from ChEMBL document CHEMBL5385929, “Tabersonine Enhances Olaparib Sensitivity through FHL1-Mediated Epithelial-Mesenchymal Transition in an Ovarian Tumor” (J Nat Prod, 2024).
pIC50: −log10 of the molar value. The source made the active and inactive calls. No cut-off for these calls is given here.

Experiments:
A2780 [1] = test: Antitumor activity against human A2780 cells xenografted in BALB/c mouse assessed as decrease in tumor weight at 5 to 15 mg/kg, ip administered every other day for 2 weeks; format: functional, organism-based; details: dose 5-15 mg/kg
A2780 [2] = test: Downregulation of EMT signalling in human A2780 cells transfected with shFHL1-1 RNA assessed as vimentin protein expression at 10 uM by western blot analysis; format: functional, cell-based
Mus musculus [3] = test: Potentiation of olaparib sensitivity in BALB/c mouse xenografted with shFHL1-1 RNA-transfected human A2780 cells assessed as upregulation of FHL1 protein expression in tumor at 15 mg/kg, ip co-administered with olaparib for 2 weeks by western blot analysis; format: functional, organism-based
A2780 [4] = test: Potentiation of olaparib sensitivity in human A2780 cells transfected with shFLH1-1 RNA assessed as downregulation of EMT signaling by measuring E-cadherin protein expression at 10 uM in presence of olaparib by western blot analysis; format: functional, cell-based
SK-OV-3 [5] = test: Inhibition of cell migration in human SK-OV-3 cells transfected with shFHL1-1 RNA at 10 uM measured after 24 to 48 hrs by wound healing assay; format: functional, cell-based; details: time 24-48 hrs
SK-OV-3 [6] = test: Inhibition of cell invasion in human SK-OV-3 cells at 10 uM measured after 48 hrs by Transwell assay; format: functional, cell-based
A2780 [7] = test: Inhibition of cell invasion in human A2780 cells transfected with shFHL1-2 RNA at 10 uM measured after 48 hrs by Transwell assay; format: functional, cell-based
A2780 [8] = test: Downregulation of EMT signalling in human A2780 cells assessed as upregulation of E-cadherin protein expression at 10 uM by western blot analysis; format: functional, cell-based
A2780 [9] = test: Potentiation of olaparib sensitivity in human A2780 cells assessed as inhibition of colony formation at 10 uM incubated for 48 hrs in presence of olaparib followed by drug wash-out and incubated in fresh medium for 2 weeks by crystal violet staining based analysis; format: functional, cell-based
SK-OV-3 [10] = test: Downregulation of EMT signalling in human SK-OV-3 cells transfected with shFHL1-1 RNA assessed as vimentin protein expression at 10 uM by western blot analysis; format: functional, cell-based
A2780 [11] = test: Inhibition of cell migration in human A2780 cells transfected with shFHL1-2 RNA at 10 uM measured after 24 to 48 hrs by wound healing assay; format: functional, cell-based; details: time 24-48 hrs
SK-OV-3 [12] = test: Increase in FHL1 protein stability in human SK-OV-3 cells at 10 uM measured after 6 to 24 hrs in presence of cycloheximide by CHX chase assay based western blot analysis; format: functional, cell-based; details: time 6-24 hrs
SK-OV-3 [13] = test: Potentiation of olaparib sensitivity in human SK-OV-3 cells assessed as inhibition of colony formation at 10 uM incubated for 48 hrs in presence of olaparib followed by drug wash-out and incubated in fresh medium for 2 weeks by crystal violet staining based analysis; format: functional, cell-based
SK-OV-3 [14] = test: Potentiation of olaparib sensitivity in human SK-OV-3 cells assessed as inhibition of cell invasion at 10 uM measured after 48 hrs in presence of olaparib by Transwell assay; format: functional, cell-based
A2780 [15] = test: Antiproliferative activity against human A2780 cells assessed as inhibition of cell viability measured after 48 hrs by CCK8 assay; format: functional, cell-based; details: A2780, 48 h
A2780 [16] = test: Downregulation of EMT signalling in human A2780 cells transfected with shFHL1-1 RNA assessed as N-cadherin protein expression at 10 uM by western blot analysis; format: functional, cell-based
SK-OV-3 [17] = test: Potentiation of olaparib sensitivity in human SK-OV-3 cells assessed as inhibition of cell migration at 10 uM measured after 24 to 48 hrs in presence of olaparib by wound healing assay; format: functional, cell-based; details: time 24-48 hrs
SK-OV-3 [18] = test: Inhibition of cell invasion in human SK-OV-3 cells transfected with shFHL1-2 RNA at 10 uM measured after 48 hrs by Transwell assay; format: functional, cell-based
A2780 [19] = test: Downregulation of EMT signalling in human A2780 cells assessed as downregulation of vimentin protein expression at 10 uM by western blot analysis; format: functional, cell-based
A2780 [20] = test: Antitumor activity against human A2780 cells xenografted in BALB/c mouse assessed as decrease in tumor growth at 5 to 15 mg/kg, ip administered every other day for 2 weeks; format: functional, organism-based; details: dose 5-15 mg/kg
A2780 [21] = test: Inhibition of cell migration in human A2780 cells transfected with shFHL1-1 RNA at 10 uM measured after 24 to 48 hrs by wound healing assay; format: functional, cell-based; details: time 24-48 hrs
A2780 [22] = test: Potentiation of olaparib sensitivity in human A2780 cells transfected with shFLH1-1 RNA assessed as downregulation of EMT signaling by measuring vimentin protein expression at 10 uM in presence of olaparib by western blot analysis; format: functional, cell-based
A2780 [23] = test: Potentiation of olaparib sensitivity in human A2780 cells assessed as inhibition of cell invasion at 10 uM measured after 48 hrs in presence of olaparib by Transwell assay; format: functional, cell-based
A2780 [24] = test: Downregulation of EMT signalling in human A2780 cells transfected with shFHL1-2 RNA assessed as vimentin protein expression at 10 uM by western blot analysis; format: functional, cell-based
SK-OV-3 [25] = test: Potentiation of olaparib sensitivity in human SK-OV-3 cells transfected with shFLH1-2 RNA assessed as downregulation of EMT signaling by measuring vimentin protein expression at 10 uM in presence of olaparib by western blot analysis; format: functional, cell-based
SK-OV-3 [26] = test: Potentiation of olaparib sensitivity in human SK-OV-3 cells transfected with shFLH1-1 RNA assessed as downregulation of EMT signaling by measuring N-cadherin protein expression at 10 uM in presence of olaparib by western blot analysis; format: functional, cell-based
A2780 [27] = test: Potentiation of olaparib-induced antitumor activity against shFHL1-1 RNA-transfected human A2780 cells xenografted in BALB/c mouse assessed as decrease in tumor weight at 15 mg/kg, ip co-administered with olaparib for 2 weeks; format: functional, organism-based
SK-OV-3 [28] = test: Downregulation of EMT signalling in human SK-OV-3 cells transfected with shFHL1-2 RNA assessed as vimentin protein expression at 10 uM by western blot analysis; format: functional, cell-based
A2780 [29] = test: Inhibition of cell migration in human A2780 cells at 10 uM measured after 24 to 48 hrs by wound healing assay; format: functional, cell-based; details: time 24-48 hrs
Mus musculus [30] = test: Potentiation of olaparib sensitivity in BALB/c mouse xenografted with shFHL1-1 RNA-transfected human A2780 cells assessed as downregulation of N-cadherin protein expression in tumor at 15 mg/kg, ip co-administered with olaparib for 2 weeks by western blot analysis; format: functional, organism-based
A2780 [31] = test: Increase in FHL1 protein stability in human A2780 cells at 10 uM measured after 6 to 24 hrs in presence of cycloheximide by CHX chase assay based western blot analysis; format: functional, cell-based; details: time 6-24 hrs
A2780 [32] = test: Potentiation of olaparib sensitivity in human A2780 cells transfected with shFHL1-2 RNA assessed as inhibition of cell migration at 10 uM measured after 24 to 48 hrs in presence of olaparib by wound healing assay; format: functional, cell-based; details: time 24-48 hrs
SK-OV-3 [33] = test: Downregulation of EMT signalling in human SK-OV-3 cells assessed as downregulation of vimentin protein expression at 10 uM by western blot analysis; format: functional, cell-based
A2780 [34] = test: Downregulation of EMT signalling in human A2780 cells transfected with shFHL1-2 RNA assessed as E-cadherin protein expression at 10 uM by western blot analysis; format: functional, cell-based

CC[C@]12C=CCN3CC[C@]4(C(=C(C(=O)OC)C1)Nc1ccccc14)[C@@H]32 [TABERSONINE] was tested, and the Activity (A2780 [1]) was “Active”, the inhibition (A2780 [2]) was “inactive” and the Activity (Mus musculus [3]) was “inactive”. For the same compound, the Activity (A2780 [4]) was “inactive”, the inhibition (SK-OV-3 [5]) was “inactive” and the inhibition (SK-OV-3 [6]) was “Active”. The inhibition (A2780 [7]) was “inactive”, the inhibition (A2780 [8]) was “Active” and the Activity (A2780 [9]) was “Active”. For the same compound, the inhibition (SK-OV-3 [10]) was “inactive”, the inhibition (A2780 [11]) was “inactive” and the Activity (SK-OV-3 [12]) was “Active”. For the same compound, the Activity (SK-OV-3 [13]) was “Active”, the Activity (SK-OV-3 [14]) was “Active” and the pIC50 (A2780 [15]) was 4.74. For the same compound, the inhibition (A2780 [16]) was “inactive”, the Activity (SK-OV-3 [17]) was “Active” and the inhibition (SK-OV-3 [18]) was “inactive”. The inhibition (A2780 [19]) was “Active”, the Activity (A2780 [20]) was “Active” and the inhibition (A2780 [21]) was “inactive”. The Activity (A2780 [22]) was “inactive”, the Activity (A2780 [23]) was “Active” and the inhibition (A2780 [24]) was “inactive”. The Activity (SK-OV-3 [25]) was “inactive”, the Activity (SK-OV-3 [26]) was “inactive” and the Activity (A2780 [27]) was “inactive”. The inhibition (SK-OV-3 [28]) was “inactive”, the inhibition (A2780 [29]) was “Active” and the Activity (Mus musculus [30]) was “inactive”. The Activity (A2780 [31]) was “Active”, the Activity (A2780 [32]) was “inactive” and the inhibition (SK-OV-3 [33]) was “Active”. The inhibition (A2780 [34]) was “inactive”.
